This test addresses PDE10 (UniProt Q9Y233). As to the kind of experiment: PDE10 enzyme inhibition, IMAP TR-FRET assay (MPDE10A7 Enzyme Activity and Inhibition). The test is classed as biochemical. A digest of the protocol: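 PDE10A enzyme or tissue homogenate preincubated with compounds 30 min at room temperature, then fluorescein-labelled cAMP or cGMP added for 60 min. IMAP binding reagent stop, TR-FRET read. Values are mean IC50s, grouped into five potency classes.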
(Time-resolved FRET reads energy transfer from a long-lived donor to a nearby acceptor.)

The mark [1] stands for this setting: IC50 class against PDE10, read-out: IC50.
Setting [2] is: PDE10 enzyme inhibition, average IC50 data for each compound, read-out: Average IC50.
The mark [3] stands for this setting: PDE10 enzyme inhibition, chiral compounds separated from racemic mixtures, read-out: IC50.

Like-named read-outs stand apart in the source and are kept apart here. A value given as a limit tells only on which side of the number the result lay.

For the compound `O=C(c1ccc(Oc2nccnc2C2CCOCC2)cc1)c1nc2ccc(F)cc2[nH]1` [Example 183, (6-fluoro-1H-benzo[d]imidazol-2-yl)(4-(3-(tetrahydro-2H-pyran-4-yl)pyrazin-2-yloxy)phenyl)methanone], the IC50 under setting [1] is less than 25 nM.

In the case of `O=C1C=C(c2nccnc2Oc2ccc(Nc3nc4ccccc4s3)c(F)c2)CCC1` [Example 136, 3-(3-(4-(benzo[d]thiazol-2-ylamino)-3-fluorophenoxy)pyrazin-2-yl)cyclohex-2-enone], the IC50 under setting [1] is less than 25 nM. For `O=C(c1ccc(Oc2nccnc2C2(O)CCOCC2)cc1)c1nc2ccccc2[nH]1` [Example 213, (1H-benzo[d]imidazol-2-yl)(4-(3-(4-hydroxytetrahydro-2H-pyran-4-yl)pyrazin-2-yloxy)phenyl)methanone], the IC50 under setting [1] was less than 25 nM. Take `COc1ncccc1-c1nccnc1Oc1ccc(C(=O)c2nc3cc(F)ccc3[nH]2)cc1` [drawing 931]: the concentration for half-maximal inhibition (IC50) under setting [2] was 5.84 nM. For `c1ccc2sc(Nc3ccc(Oc4nccnc4C4CCOC4)cc3)nc2c1` (stereo not shown) [Example 221, N-(4-(3-(TETRAHYDROFURAN-3-YL)PYRAZIN-2-YLOXY)PHENYL)BENZO[D]THIAZOL-2-AMINE], the IC50 under setting [1] is less than 25 nM. `C[C@H](F)C(=O)N1CCC(c2nccnc2Oc2ccc(Nc3nc4ccccc4s3)cc2)CC1` [Example 280, (S)-1-(4-(3-(4-(benzo[d]thiazol-2-ylamino)phenoxy)pyrazin-2-yl)piperidin-1-yl)-2-fluoropropan-1-one]: the IC50 under setting [3] is less than 25 nM. In the case of `N#Cc1ccc(-c2nccnc2Oc2ccc(Nc3nc4ccccc4s3)cc2)cn1` [Example 142, 5-(3-(4-(benzo[d]thiazol-2-ylamino)phenoxy)pyrazin-2-yl)picolinonitrile], under setting [1], the IC50 was less than 25 nM. With `COC(=O)C1(c2nccnc2Oc2ccc(Nc3nc4ccccc4s3)cc2)CCOCC1` [drawing 871], the IC50 under setting [2] was determined as 6.28 nM. `O=C(c1ccc(Oc2nccnc2OCCCc2cccnc2)cc1)c1nc2ccccc2[nH]1` [drawing 861]: the IC50 under setting [2] was 10.9 nM. With `C[C@]1(O)CC[C@H](c2nccnc2Oc2ccc(C(=O)c3nc4ccccc4[nH]3)cc2)CC1` [Example 197, (1H-benzo[d]imidazol-2-yl)(4-(3-((1R,4R)-4-hydroxy-4-methylcyclohexyl)pyrazin-2-yloxy)phenyl)methanone], the IC50 under setting [1] was less than 25 nM. With `O=C1CCC(c2nccnc2Oc2ccc(C(=O)c3nc4ccccc4[nH]3)cc2)CC1` [drawing 911], under setting [2], the IC50 was 0.199 nM. As to `CN(C)CC(=O)N1CCC(c2nccnc2Oc2ccc(C(=O)c3nc4ccccc4[nH]3)cc2)CC1` [Example 245, 1-(4-(3-(4-(1H-benzo[d]imidazole-2-carbonyl)phenoxy)pyrazin-2-yl)piperidin-1-yl)-2-(dimethylamino) ethanone], under setting [1], the IC50 was less than 25 nM.

Take `OC1(c2nccnc2Oc2ccc(Nc3nc4ccccc4s3)cc2)CCOCC1` [Example 202, 4-(3-(4-(BENZO[D]THIAZOL-2-YLAMINO)PHENOXY)PYRAZIN-2-YL)TETRAHYDRO-2H-PYRAN-4-OL]: under setting [1], the IC50 was less than 25 nM. Consider `COc1ncccc1-c1nccnc1Oc1ccc(Nc2nc3ccccc3s2)cc1` [Example 155, N-(4-(3-(2-methoxypyridin-3-yl)pyrazin-2-yloxy)phenyl)benzo[d]thiazol-2-amine], for which the IC50 under setting [1] is less than 25 nM. For the compound `COC(=O)c1ccc(-c2nccnc2Oc2ccc(C(=O)c3nc4ccccc4[nH]3)cc2)cc1` [drawing 758], under setting [2], the IC50 was 33 nM. As for `OC[C@@H]1CCN(c2nccnc2Oc2ccc(Nc3nc4ccccc4s3)cc2)C1` [drawing 732], the IC50 under setting [2] amounted to 2.89 nM. For the compound `c1ccc2sc(Nc3ccc(Oc4nccnc4-c4ccc(N5CCOCC5)nc4)cc3)nc2c1` [drawing 762], under setting [2], the IC50 is 78 nM. For the compound `Fc1ccc2sc(Nc3ccc(Oc4nccnc4C4CCOCC4)cc3)nc2c1` [Example 218, 5-fluoro-N-(4-(3-(tetrahydro-2H-pyran-4-yl)pyrazin-2-yloxy)phenyl)benzo[d]thiazol-2-amine], the IC50 under setting [1] was less than 25 nM. On to `C[C@H](F)C(=O)N1CCC(c2nccnc2Oc2ccc(C(=O)c3nc4ccccc4[nH]3)cc2)CC1` [drawing 977], for which the IC50 under setting [2] amounted to 0.137 nM. With `CC(C)Oc1nccnc1Oc1ccc(C(=O)c2nc3ccccc3[nH]2)cc1` [Example 161, (1H-benzo[d]imidazol-2-yl)(4-(3-isopropoxypyrazin-2-yloxy)phenyl)methanone], the IC50 under setting [1] lay in the range of 1000 to 5000 nM.

`c1ccc2[nH]c(Nc3ccc(Oc4nccnc4C4CCOCC4)cc3)nc2c1` [drawing 863]: the IC50 under setting [2] came to 0.101 nM.

`c1ccc(Nc2ccc(Oc3nccnc3NCC3CCNCC3)cc2)nc1`: the IC50 under setting [2] turned out to be 814 nM.

With `CCCOc1nccnc1Oc1ccc(C(=O)c2nc3ccccc3[nH]2)cc1` [drawing 905], the IC50 under setting [2] amounted to 25.2 nM. Regarding `Fc1ccc2nc(Nc3ccc(Oc4nccnc4C4CCOCC4)cc3)sc2c1` [Example 214, 6-fluoro-N-(4-(3-(tetrahydro-2H-pyran-4-yl)pyrazin-2-yloxy)phenyl)benzo[d]thiazol-2-amine], the IC50 under setting [1] is less than 25 nM. For `O=C(c1ccc(Oc2nccnc2N2CC[C@H](CO)C2)cc1)c1nc2ccccc2[nH]1`, the IC50 under setting [2] turned out to be 2.54 nM. On the same count and under the same terms, then `COc1ccc(-c2nccnc2Oc2ccc(C(=O)c3nc4ccccc4[nH]3)cc2)c(OC)n1` [drawing 955], with 0.577 nM.

As for `Cc1cc(-c2nccnc2Oc2ccc(C(=O)c3nc4ccccc4[nH]3)cc2)ccn1` [Example 107, (1H-benzo[d]imidazol-2-yl)(4-(3-(2-methylpyridin-4-yl)pyrazin-2-yloxy)phenyl)methanone], the IC50 under setting [1] is less than 25 nM. Regarding `Fc1cccc2nc(Nc3ccc(Oc4nccnc4Cl)cc3)sc12` [drawing 826], under setting [2], the IC50 is 751 nM. Consider `OCC1CCCCN1c1nccnc1Oc1ccc(Nc2nc3ccccc3s2)cc1` (stereo not shown) [drawing 730], for which the IC50 under setting [2] is 21.7 nM.

Consider `O=C(c1ccc(Oc2nccnc2N2CCC(N3CCOCC3)CC2)cc1)c1nc2ccccc2[nH]1`, for which the IC50 under setting [2] stood at 27 nM.

In the case of `COC(=O)[C@@H]1CCN(c2nccnc2Oc2ccc(C(=O)c3nc4ccccc4[nH]3)cc2)C1` [Example 266, (R)-methyl 1-(3-(4-(1H-benzo[d]imidazole-2-carbonyl)phenoxy)pyrazin-2-yl)pyrrolidine-3-carboxylate], the IC50 under setting [3] was less than 25 nM. For `COC(=O)N1CCC(c2nccnc2Oc2ccc(Nc3nc4ccccc4s3)cc2)CC1`, the IC50 under setting [2] was 0.206 nM. As for `OC(c1ccc(Oc2nccnc2C2CCOCC2)cc1)c1nc2ccccc2[nH]1` (stereo not shown), the IC50 under setting [2] amounted to 386 nM. As to `COc1ncccc1-c1nccnc1Oc1ccc(Nc2nc3cccc(F)c3s2)cc1` [drawing 950], the IC50 under setting [2] amounted to 7.76 nM. Regarding `Fc1ccc2sc(Nc3ccc(Oc4nccnc4Cl)cc3)nc2c1` [drawing 832], the IC50 under setting [2] was greater than 30000 nM. On to `C[C@]1(O)CC[C@@H](c2nccnc2Oc2ccc(C(=O)c3nc4ccccc4[nH]3)cc2)CC1` [Example 196, (1H-benzo[d]imidazol-2-yl)(4-(3-((1S,4S)-4-hydroxy-4-methylcyclohexyl)pyrazin-2-yloxy)phenyl)methanone], for which, under setting [1], the IC50 was less than 25 nM. For `CC1(C)C=C(c2nccnc2Oc2ccc(C(=O)c3nc4ccccc4[nH]3)cc2)C(=O)CC1` [Example 132, 2-(3-(4-(1H-benzo[d]imidazole-2-carbonyl)phenoxy)pyrazin-2-yl)-4,4-dimethylcyclohex-2-enone], under setting [1], the IC50 lay within 25 to 100 nM. Turning to `c1ccc2sc(Nc3ccc(Oc4nccnc4C4CCCOC4)cc3)nc2c1` (stereo not shown) [Example 193, N-(4-(3-(tetrahydro-2H-pyran-3-yl)pyrazin-2-yloxy)phenyl)benzo[d]thiazol-2-amine], the IC50 under setting [1] is less than 25 nM. Regarding `COc1nccnc1Oc1ccc(C(=O)c2nc3ccccc3[nH]2)cc1` [drawing 843], the IC50 under setting [2] was found to be 43.6 nM. As for `CC(=O)N1CC(c2nccnc2Oc2ccc(C(=O)c3nc4ccccc4[nH]3)cc2)C1` [drawing 925], the IC50 under setting [2] is 2.71 nM. Same read-out and setting: then `N#C[C@@H]1CCCN(c2nccnc2Oc2ccc(C(=O)c3nc4ccccc4[nH]3)cc2)C1` (stereo in doubt), with 6.79 nM; and `O=C(c1ccc(Oc2nccnc2-c2cccnc2F)cc1)c1nc2ccccc2[nH]1`, with 3.53 nM. Take `O=C(c1ccc(Oc2nccnc2OCCCc2cccnc2)cc1)c1nc2ccccc2[nH]1` [Example 178, (1H-benzo[d]imidazol-2-yl)(4-(3-(3-(pyridin-3-yl)propoxy)pyrazin-2-yloxy)phenyl)methanone]: under setting [1], the IC50 fell in the range of 25 to 100 nM. Regarding `COc1cnccc1-c1nccnc1Oc1ccc(Nc2nc3ccccc3s2)cc1` [Example 149, N-(4-(3-(3-methoxypyridin-4-yl)pyrazin-2-yloxy)phenyl)benzo[d]thiazol-2-amine], the IC50 under setting [1] was less than 25 nM. For the compound `COC(=O)C1CCN(c2nccnc2Oc2ccc(Nc3nc4ccccc4s3)cc2)C1` (stereo not shown) [Example 96, methyl 1-(3-(4-(benzo[d]thiazol-2-ylamino)phenoxy)pyrazin-2-yl)pyrrolidine-3-carboxylate], the half-inhibitory concentration (IC50) under setting [1] is less than 25 nM. As to `O=C(c1ccc(Oc2nccnc2C2=CCC(F)(F)CC2)cc1)c1nc2ccccc2[nH]1` [Example 199, (1H-benzo[d]imidazol-2-yl)(4-(3-(4,4-difluorocyclohex-1-enyl)pyrazin-2-yloxy)phenyl)methanone], under setting [1], the IC50 was less than 25 nM.

Consider `O=C(c1ccc(Oc2nccnc2[C@H]2CCCOC2)cc1)c1nc2ccccc2[nH]1` (stereo in doubt), for which, under setting [2], the IC50 came out at 2.59 nM. With `O=C(c1ccc(Oc2nccnc2[C@@H]2CCC[C@@H](O)C2)cc1)c1nc2ccccc2[nH]1`, the IC50 under setting [2] came to 0.992 nM.

Consider `Cc1noc([C@@H]2CCN(c3nccnc3Oc3ccc(C(=O)c4nc5ccccc5[nH]4)cc3)C2)n1` (stereo in doubt), for which the IC50 under setting [2] worked out at 3.73 nM.

With `O=C(c1ccc(Oc2nccnc2Cl)cc1)c1nc2ccccc2[nH]1` [drawing 714], the IC50 under setting [2] was 287 nM. The same measure, in the same setting: in the case of `N#Cc1cccc(-c2nccnc2Oc2ccc(C(=O)c3nc4ccccc4[nH]3)cc2)c1` [drawing 756] it was 42 nM; in that of `COc1ccc(COc2ncccc2-c2nccnc2Oc2ccc(C(=O)c3nc4ccccc4[nH]3)cc2)cc1`, 10.9 nM.

A word on the IC50: it is the point on the concentration scale where inhibition reaches its midpoint.
